PubChem BioAssay (NCI)
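Each compound was tested at five concentrations against cells in 96-well plates for 48 hours. GI50 marks 50% less growth. The concentration for full growth arrest is given as TGI.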

Key:
Assay in all cases: NCI anticancer screen, dose series, 48 h
786-0 renal = system: 786-0 renal
A498 renal = system: A498 renal
ACHN renal = system: ACHN renal
BT-549 breast = system: BT-549 breast
CAKI-1 renal = system: CAKI-1 renal
CCRF-CEM leukemia = system: CCRF-CEM leukemia
DU-145 prostate = system: DU-145 prostate
EKVX NSCLC = system: EKVX NSCLC
HCC-2998 colon = system: HCC-2998 colon
HCT-116 colon = system: HCT-116 colon
HCT-15 colon = system: HCT-15 colon
HL-60(TB) leukemia = system: HL-60(TB) leukemia
HOP-92 NSCLC = system: HOP-92 NSCLC
HS 578T breast = system: HS 578T breast
HT29 colon = system: HT29 colon
IGROV1 ovarian = system: IGROV1 ovarian
K-562 leukemia = system: K-562 leukemia
KM12 colon = system: KM12 colon
LOX IMVI melanoma = system: LOX IMVI melanoma
M14 melanoma = system: M14 melanoma
MALME-3M melanoma = system: MALME-3M melanoma
MCF7 breast = system: MCF7 breast
MDA-MB-231 breast = system: MDA-MB-231 breast
MDA-MB-435 = system: MDA-MB-435
NCI-H23 lung = system: NCI-H23 lung
NCI-H522 lung = system: NCI-H522 lung
NCI/ADR-RES ovarian = system: NCI/ADR-RES ovarian
OVCAR-3 ovarian = system: OVCAR-3 ovarian
OVCAR-4 ovarian = system: OVCAR-4 ovarian
OVCAR-5 ovarian = system: OVCAR-5 ovarian
PC-3 prostate = system: PC-3 prostate
RPMI-8226 leukemia = system: RPMI-8226 leukemia
RXF 393 renal = system: RXF 393 renal
SF-295 CNS = system: SF-295 CNS
SF-539 CNS = system: SF-539 CNS
SK-MEL-2 melanoma = system: SK-MEL-2 melanoma
SK-MEL-28 melanoma = system: SK-MEL-28 melanoma
SK-MEL-5 melanoma = system: SK-MEL-5 melanoma
SNB-19 CNS = system: SNB-19 CNS
SNB-75 CNS = system: SNB-75 CNS
SR leukemia = system: SR leukemia
SW-620 colon = system: SW-620 colon
T-47D breast = system: T-47D breast
TK-10 renal = system: TK-10 renal
UACC-257 melanoma = system: UACC-257 melanoma
UACC-62 melanoma = system: UACC-62 melanoma
UO-31 renal = system: UO-31 renal

SMILES: COc1ccc(NC(=O)Nc2ccccc2CNc2nc(Nc3ccc(OCCN4CCCC4)cc3)ncc2Cl)cc1
- GI50 (786-0 renal): 882 nM
- TGI (786-0 renal): 1640 nM
- GI50 (A498 renal): 963 nM
- TGI (A498 renal): 3270 nM
- GI50 (ACHN renal): 862 nM
- TGI (ACHN renal): 1550 nM
- GI50 (BT-549 breast): 788 nM
- TGI (BT-549 breast): 1540 nM
- GI50 (CAKI-1 renal): 867 nM
- TGI (CAKI-1 renal): 1610 nM
- GI50 (CCRF-CEM leukemia): 1680 nM
- TGI (CCRF-CEM leukemia): > 50000 nM
- GI50 (DU-145 prostate): 1240 nM
- TGI (DU-145 prostate): 3420 nM
- GI50 (EKVX NSCLC): 2650 nM
- TGI (EKVX NSCLC): 9450 nM
- GI50 (HCC-2998 colon): 1010 nM
- TGI (HCC-2998 colon): 2180 nM
- GI50 (HCT-116 colon): 902 nM
- TGI (HCT-116 colon): 1750 nM
- GI50 (HCT-15 colon): 878 nM
- TGI (HCT-15 colon): 1760 nM
- GI50 (HL-60(TB) leukemia): 1150 nM
- TGI (HL-60(TB) leukemia): 2590 nM
- GI50 (HOP-92 NSCLC): 877 nM
- TGI (HOP-92 NSCLC): 2370 nM
- GI50 (HS 578T breast): 1010 nM
- TGI (HS 578T breast): 2380 nM
- GI50 (HT29 colon): 1100 nM
- TGI (HT29 colon): 2600 nM
- GI50 (IGROV1 ovarian): 894 nM
- TGI (IGROV1 ovarian): 1660 nM
- GI50 (K-562 leukemia): 1630 nM
- TGI (K-562 leukemia): > 50000 nM
- GI50 (KM12 colon): 947 nM
- TGI (KM12 colon): 1770 nM
- GI50 (LOX IMVI melanoma): 894 nM
- TGI (LOX IMVI melanoma): 1640 nM
- GI50 (M14 melanoma): 833 nM
- TGI (M14 melanoma): 1640 nM
- GI50 (MALME-3M melanoma): 845 nM
- TGI (MALME-3M melanoma): 1580 nM
- GI50 (MCF7 breast): 926 nM
- TGI (MCF7 breast): 1780 nM
- GI50 (MDA-MB-231 breast): 953 nM
- TGI (MDA-MB-231 breast): 1740 nM
- GI50 (MDA-MB-435): 874 nM
- TGI (MDA-MB-435): 1610 nM
- GI50 (NCI-H23 lung): 2010 nM
- TGI (NCI-H23 lung): 8720 nM
- GI50 (NCI-H522 lung): 1040 nM
- TGI (NCI-H522 lung): 2310 nM
- GI50 (NCI/ADR-RES ovarian): 1100 nM
- TGI (NCI/ADR-RES ovarian): 2640 nM
- GI50 (OVCAR-3 ovarian): 923 nM
- TGI (OVCAR-3 ovarian): 1730 nM
- GI50 (OVCAR-4 ovarian): 879 nM
- TGI (OVCAR-4 ovarian): 1690 nM
- GI50 (OVCAR-5 ovarian): 1020 nM
- TGI (OVCAR-5 ovarian): 2080 nM
- GI50 (PC-3 prostate): 1200 nM
- TGI (PC-3 prostate): 2960 nM
- GI50 (RPMI-8226 leukemia): 1730 nM
- TGI (RPMI-8226 leukemia): > 50000 nM
- GI50 (RXF 393 renal): 828 nM
- TGI (RXF 393 renal): 1640 nM
- GI50 (SF-295 CNS): 853 nM
- TGI (SF-295 CNS): 1600 nM
- GI50 (SF-539 CNS): 825 nM
- TGI (SF-539 CNS): 1540 nM
- GI50 (SK-MEL-2 melanoma): 1120 nM
- TGI (SK-MEL-2 melanoma): 2580 nM
- GI50 (SK-MEL-28 melanoma): 870 nM
- TGI (SK-MEL-28 melanoma): 1620 nM
- GI50 (SK-MEL-5 melanoma): 849 nM
- TGI (SK-MEL-5 melanoma): 1550 nM
- GI50 (SNB-19 CNS): 2140 nM
- TGI (SNB-19 CNS): 9200 nM
- GI50 (SNB-75 CNS): 755 nM
- TGI (SNB-75 CNS): 1450 nM
- GI50 (SR leukemia): 1540 nM
- TGI (SR leukemia): > 50000 nM
- GI50 (SW-620 colon): 1050 nM
- TGI (SW-620 colon): 2500 nM
- GI50 (T-47D breast): 1020 nM
- TGI (T-47D breast): 2540 nM
- GI50 (TK-10 renal): 990 nM
- TGI (TK-10 renal): 1980 nM
- GI50 (UACC-257 melanoma): 926 nM
- TGI (UACC-257 melanoma): 1730 nM
- GI50 (UACC-62 melanoma): 869 nM
- TGI (UACC-62 melanoma): 1630 nM
- GI50 (UO-31 renal): 763 nM
- TGI (UO-31 renal): 1440 nM
